# In patent US20220235008A1, “PLEUROMULIN 7-CHLORO-1-CYCLOPROPYL-6-FLUORO-1,4-DIHYDRO-4-OXOQUINOLINE-3-CARBOXYLIC ACID ESTER WITH ANTIBACTERIAL ACTIVITY AND A METHOD OF PREPARING THE SAME” (SHAANXI UNIVERSITY OF SCIENCE AND TECHNOLOGY, priority 2021, published 2022):
# Assays:
# Assay type in all cases: cell-based
# [1] = system: multi-resistant Staphylococcus aureus 206 (MRSA-206); experiment: paper diffusion method drug sensitivity test, MRSA-206; settings: 30 μg/tablet; for Zone of inhibition, MRSA-206: paper 6.35 mm diameter, LB plate, 37° C., 24 h, >17 mm sensitive, 15 mm-16 mm intermediary, <14 mm drug resistance; for inhibitory effect (in words) on multi-drug resistant Staphylococcus aureus 206: paper diffusion, summary of FIGS. 1-3 and Table 1
# Experimental: (§1) The antimicrobial efficacy was determined by a paper diffusion method drug sensitivity test.
# (§2) Experimental strains: multi-resistant Staphylococcus aureus 206 (MRSA-206), multi-resistant Staphylococcus aureus 575 (MRSA-575), multi-resistant Staphylococcus aureus 596 (MRSA-596). The experimental strain was identified by Huashan Hospital Affiliated to Fudan University (Institute of Antibiotic of Fudan University).
# (§3) Drug sensitive paper: The drug sensitive paper was a special drug sensitive paper with a diameter of 6.35 mm and a water absorption of 0.02 mL. The control drug was vancomycin (30 μg/tablet); the test drugs were pleuromulin (30 μg/tablet), 7-chloro-1-cyclopropyl-6-fluoro-1,4-dihydro-4-oxoquinoline-3-carboxylic acid (30 μg/tablet) and pleuromulin 7-chloro-1-cyclopropyl-6-fluoro-1,4-dihydro-4-oxoquinoline-3-carboxylic acid ester (30 μg/tablet).
# (§4) Reagents: LB agar medium, LA broth medium, 0.5% DMSO solution.
# (§5) The experimental strains were inoculated in non-selective medium and placed in air at 37° C. for 24 h. A single colony that grows well and inoculate it into broth medium was incubate at 35° C.±2° C. for 6 hours, and LA broth medium was used to calibrate the concentration of the bacterial solution to 0.5 Mie turbidimetric tube (1.5×10^8 CFU/mL). A bacterial suspension was obtained.
# (§6) LB dry powder was weighed, sterilized at 103.4 Kpa, 121.3° C. high-pressure steam for 15 min, and then placed it in a 40° C.-50° C. water bath. A sterile empty plate (inner diameter 9 cm) was placed on the surface of the ultra-clean table water table, and […] to the plate. The thickness of each plate was 3 mm to 4 mm. After the plate was cooled at room temperature, it was stored in the refrigerator at 2° C.-8° C. A sterile cotton swab was used to dip the bacterial solution and to evenly coat the surface of the LB plate 3 times. After inoculation of the bacterial suspension, the LB plate was dried at room temperature for 3 min to 5 min. Sterile forceps were used to closely attach the antibacterial drug paper to the dish. The dish was put upside down and placed in a 37° C. incubator for 24 h. The results were observed by measuring the diameter. Taking 0.5% DMSO solution as a negative control, the antibacterial activity is expressed by the diameter of the inhibition zone. The inhibition zone >17 mm, sensitive; the inhibition zone of 15 mm-16 mm, intermediary; the inhibition zone <14 mm, drug resistance.
# [2] = system: multi-resistant Staphylococcus aureus 596 (MRSA-596); experiment: paper diffusion method drug sensitivity test, MRSA-596; settings: 30 μg/tablet; for Zone of inhibition, MRSA-596: paper 6.35 mm diameter, LB plate, 37° C., 24 h, >17 mm sensitive, 15 mm-16 mm intermediary, <14 mm drug resistance; for inhibitory effect (in words) on multi-drug resistant Staphylococcus aureus 596: paper diffusion, summary of FIGS. 1-3 and Table 1
# Experimental: as §1, §2, §3, §4, §5, §6
# [3] = system: multi-resistant Staphylococcus aureus 575 (MRSA-575); experiment: paper diffusion method drug sensitivity test, MRSA-575; settings: 30 μg/tablet; for Zone of inhibition, MRSA-575: paper 6.35 mm diameter, LB plate, 37° C., 24 h, >17 mm sensitive, 15 mm-16 mm intermediary, <14 mm drug resistance; for inhibitory effect (in words) on multi-drug resistant Staphylococcus aureus 575: paper diffusion, summary of FIGS. 1-3 and Table 1
# Experimental: as §1, §2, §3, §4, §5, §6
Compound,"Zone of inhibition, MRSA-206 [1] [mm]",inhibitory effect (in words) on multi-drug resistant Staphylococcus aureus 206 [1],"Zone of inhibition, MRSA-596 [2] [mm]",inhibitory effect (in words) on multi-drug resistant Staphylococcus aureus 596 [2],"Zone of inhibition, MRSA-575 [3] [mm]",inhibitory effect (in words) on multi-drug resistant Staphylococcus aureus 575 [3]
"C=C[C@]1(C)C[C@@H](OC(=O)COC(=O)C2CN(C3CC3)c3cc(Cl)c(F)cc3C2=O)[C@]2(C)CC[C@@H](C)[C@@]3(CCC(=O)[C@@H]23)[C@@H](C)[C@@H]1O (stereo partly drawn) [2-(((3aS,4R,5S,6S,8R,9R,9aR,12R)-5-hydroxy-4,6,9,12-tetramethyl-1-oxo-6-vinyldecahydro-3a, 9-propanocyclopenta[8]annulen-8-yl)oxy)-2-oxoethyl-7-chloro-1-cyclopropyl-6-fluoro-4-oxo-1,2,3,4-tetrahydroquinoline-3-carboxylate]",16,strong inhibitory effects,25,strong inhibitory effects,12,strong inhibitory effects
"O=C(O)c1cn(C2CC2)c2cc(Cl)c(F)cc2c1=O [7-Chloro-1-cyclopropyl-6-fluoro-1,4-dihydro-4-oxoquinoline-3-carboxylic acid]",0,no inhibitory effect,0,no inhibitory effect,0,no inhibitory effect
C=C[C@]1(C)C[C@@H](OC(=O)CO)[C@]2(C)[C@H](C)CC[C@]3(CCC(=O)[C@H]32)[C@@H](C)[C@@H]1O [Pleuromulin],0,no inhibitory effect,0,no inhibitory effect,0,no inhibitory effect
CN[C@H](CC(C)C)C(=O)N[C@H]1C(=O)N[C@@H](CC(N)=O)C(=O)N[C@H]2C(=O)N[C@H]3C(=O)N[C@H](C(=O)N[C@H](C(=O)O)c4cc(O)cc(O)c4-c4cc3ccc4O)[C@H](O)c3ccc(c(Cl)c3)Oc3cc2cc(c3O[C@@H]2O[C@H](CO)[C@@H](O)[C@H](O)[C@H]2O[C@H]2C[C@](C)(N)[C@H](O)[C@H](C)O2)Oc2ccc(cc2Cl)[C@H]1O [Vancomycin],15,–,23,–,17,–
